Data from publication PMC10785800, “Molecular Basis for Inhibition of Heparanases and β-Glucuronidases by Siastatin B” (Journal of the American Chemical Society, 2023).
Like-named read-outs stand apart in the source and are kept apart here.

How the values were obtained:
[1] = target: T1, Acidobacterium capsulatum β-glucuronidase (AcGH79) (Acidobacterium capsulatum, UniProt C1F2K5); test: Inhibition of AcGH79 hydrolysis of 4-methylumbelliferyl glucuronide (MU-GlcUA); type: biochemical
T1 sequence (C1F2K5 1-475): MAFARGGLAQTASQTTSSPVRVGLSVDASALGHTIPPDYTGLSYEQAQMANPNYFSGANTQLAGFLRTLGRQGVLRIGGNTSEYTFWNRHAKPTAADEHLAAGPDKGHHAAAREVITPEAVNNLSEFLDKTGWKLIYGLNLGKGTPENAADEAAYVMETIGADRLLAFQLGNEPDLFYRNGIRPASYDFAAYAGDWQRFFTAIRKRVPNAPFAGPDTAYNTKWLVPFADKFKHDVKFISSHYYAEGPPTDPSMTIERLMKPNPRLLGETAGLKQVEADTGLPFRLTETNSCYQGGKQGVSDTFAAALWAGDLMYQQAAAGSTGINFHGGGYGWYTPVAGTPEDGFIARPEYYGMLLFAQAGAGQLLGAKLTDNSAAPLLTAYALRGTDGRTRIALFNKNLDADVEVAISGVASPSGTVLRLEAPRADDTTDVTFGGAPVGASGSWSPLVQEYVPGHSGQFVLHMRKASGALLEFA
From the text: (§1) To assess the potency of the synthesized 1-N-iminosugars, we first turned to the exo-acting β-glucuronidases AcGH79 and EcGusB, whose activity can be readily monitored with the use of the fluorogenic substrate 4-methylumbelliferyl glucuronide (MU-GlcUA). As these β-glucuronidases belong to different families–AcGH79 to the GH79 family and EcGusB to the GH2 family[46]—assessing inhibition with these enzymes also gives some insights into the applicability of these molecules. All four synthesized compounds (8–11) are able to inhibit both enzymes (see Table 1, Figures S5 and S6).
(§2) Figure S5. Inhibition kinetics of AcGH79 treated with synthetic inhibitors. The inhibition constants for AcGH79 treated with A) 11, B) 9, C) 10, and D) 8 were determined. Michaelis-Menten saturation curves were determined in the presence of various concentration of inhibitor (left panel). These curves were fit to a hyperbolic equation, resulting in a Michaelis constant (KM). The KM values were then plotted against the inhibitor concentration (right panel). A linear fit of this plot was then used to determine the inhibition constant (KI).
(§3) Initial rates were determined for AcGH79 and EcGusB hydrolysis of 4-methylumbelliferyl glucuronide in the presence of varying concentrations either commercial or HPLC purified siastatin B to determine inhibitory IC50 concentrations. Reactions contained 20 mM NaCl, 1 % BSA, 60 mM McIllvane Buffer pH 5.0 and 500 µM 4-methylumbelliferyl glucuronide and 0 – 400 µM siastatin B. Assays were initiated by the addition of enzyme to a final concentration of 2 nM. Fluorescence was monitored using a Clariostar plate reader using an excitation wavelength of 365 nm and emission wavelength of 450 nm.
(§4) Assays were performed in quadruplicate and the variation of initial rates with inhibitor concentration […]
(§5) were fit to the Hill equation: with the software program Origin 2019. A=Amax( kn+ [I]n) To determine inhibition constant (Ki) values, Michaelis-Menten parameters were determined for AcGH79 and EcGusB hydrolysis of 4-methylumbelliferyl glucuronide in reactions containing one of the inhibitors 8, 9, 10 or 11. Assays were initiated by the addition of enzyme to the assay mix containing 0-1 mM 4-methylumbelliferyl glucuronide, 20 mM NaCl, 0.1 % BSA, 60 mM McIllvane Buffer pH
(§6) 5.0. Fluorescence was monitored as above. Michaelis constants were determined for at least 3 different inhibitor concentrations for each different inhibitor. Inhibition constants were calculated according to a competitive inhibition model for both inhibitors using the equation : . All K= K(1+ [I]) […]
(§7) kinetic parameters were fit with the software program Origin 2019. […]
(§8) The Journal of Organic Chemistry 2005, 70, 5207-5214.
(§9) Nat Struct Mol Biol 2015, 22 (12), 1016-1022.
(§10) (7) Winter, G. xia2: an expert system for macromolecular crystallography data reduction. Journal of […]

[2] = target: T2, E. coli β-glucuronidase (EcGusB) (Escherichia coli, UniProt P05804); test: Inhibition of EcGusB hydrolysis of 4-methylumbelliferyl glucuronide (MU-GlcUA); type: biochemical; conditions: for Ki: fluorogenic substrate MU-GlcUA, McIllvane buffer pH 5.0, competitive inhibition model
T2 construct: made in house; host or cells: E. coli BL21 Gold (DE3)
T2 sequence (P05804 whole entry): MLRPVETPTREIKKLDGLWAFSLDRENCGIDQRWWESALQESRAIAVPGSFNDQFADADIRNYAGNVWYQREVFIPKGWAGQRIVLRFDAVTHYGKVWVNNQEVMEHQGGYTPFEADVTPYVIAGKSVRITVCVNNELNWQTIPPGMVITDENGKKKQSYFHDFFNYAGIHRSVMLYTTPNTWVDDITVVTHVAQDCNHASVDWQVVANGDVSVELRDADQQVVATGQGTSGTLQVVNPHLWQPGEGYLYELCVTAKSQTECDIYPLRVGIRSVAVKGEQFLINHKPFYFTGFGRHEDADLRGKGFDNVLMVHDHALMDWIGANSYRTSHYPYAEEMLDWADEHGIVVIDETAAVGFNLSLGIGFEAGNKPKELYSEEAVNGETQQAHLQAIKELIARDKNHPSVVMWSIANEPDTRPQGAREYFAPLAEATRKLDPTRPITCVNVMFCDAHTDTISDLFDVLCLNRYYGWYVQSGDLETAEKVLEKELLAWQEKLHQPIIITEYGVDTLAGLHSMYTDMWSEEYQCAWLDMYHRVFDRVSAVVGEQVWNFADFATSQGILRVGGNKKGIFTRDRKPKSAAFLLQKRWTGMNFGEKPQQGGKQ
From the text: as §1
as §2, with “S6.” for “S5.”, “EcGusB” for “AcGH79”
(§11) (1 picture or pasted object on this page, not shown here)
as §3, §4, §5, §6, §7, §8, §9, §10

[3] = target: T3, human β-glucuronidase (HsGUSB) (Homo sapiens, UniProt P08236); test: Competitive activity-based protein profiling (cABPP) of GUSB in platelet lysate; type: biochemical; conditions: cABPP with ABP VB-A69 100 nM, pH 5.0, 1 h preincubation at 37°C
T3 construct: endogenous in cells; host or cells: human platelets (lysate)
T3 sequence (P08236 23-651): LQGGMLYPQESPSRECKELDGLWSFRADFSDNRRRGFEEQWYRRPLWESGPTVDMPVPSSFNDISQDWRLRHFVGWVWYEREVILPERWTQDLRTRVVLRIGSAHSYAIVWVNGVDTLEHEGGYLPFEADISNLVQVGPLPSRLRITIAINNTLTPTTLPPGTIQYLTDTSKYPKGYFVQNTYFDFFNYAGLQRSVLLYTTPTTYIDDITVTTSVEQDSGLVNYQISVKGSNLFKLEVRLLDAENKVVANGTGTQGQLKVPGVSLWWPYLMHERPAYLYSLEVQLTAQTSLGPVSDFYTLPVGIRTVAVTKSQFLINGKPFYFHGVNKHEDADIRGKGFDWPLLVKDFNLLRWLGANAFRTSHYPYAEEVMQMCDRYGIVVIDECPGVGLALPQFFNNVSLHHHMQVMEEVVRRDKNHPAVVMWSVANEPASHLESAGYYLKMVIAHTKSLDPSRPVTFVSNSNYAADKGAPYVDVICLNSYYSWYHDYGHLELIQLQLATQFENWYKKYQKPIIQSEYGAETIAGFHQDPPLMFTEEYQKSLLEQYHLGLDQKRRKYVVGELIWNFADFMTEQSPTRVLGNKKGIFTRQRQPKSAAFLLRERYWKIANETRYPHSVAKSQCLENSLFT
From the text: (§12) We next examined whether the synthetic 1-N-iminosugars could inhibit HPSE and human β-glucuronidase. To assess the potency of these inhibitors, we used a competitive activity-based protein profiling (cABPP) assay, that measures the ability of the inhibitor to reduce fluorescent labeling of an enzyme by a fluorescent pan-β-glucuronidase activity-based probe (ABP).[16],[34] Using this cABPP assay, we can simultaneously monitor the inhibition of HPSE and GUSB that are both present in platelet lysates.[6],[29] […] The IC50’s determined for HPSE were greater than that observed for GUSB, which is anticipated for monomer-like inhibitors acting on multisubsite endo-acting enzymes. […] However, the trend that inhibition was improved with the removal of the 3-geminal diol was maintained for both GUSB and HPSE.
(§13) Figure 3 Competitive ABPP of platelet lysate with synthetic iminosugars. Iminosugars 8–11 inhibit both GusB and HPSE present in human platelet lysate. Quantitated fluorescence plots used to determine IC50 values are available in Figure S7. Full length gel images and replicates are available in Figure S8, and Coomassie stained gels are available in Figure S9.
(§14) Figure S7. Inhibition of HPSE and GusB in human platelet lysates by inhibitors 8, 9, 10 and 11. A […]
(§15) normalized quantitated band intensities for HPSE against inhibitor concentration. […]
(§16) Xray diffraction data were collected at 100 K at beamlines i03, i04 and i04-1 of the Diamond Light Source UK. Reflections were autoprocessed using the XIA2 pipeline7. Complexes were solved by directly refining against their unliganded structures where solved using molecular replacement with PHASER4 (search model PDB accessions 5E98 (HPSE), 3VNY (AcGH79), 3K46 (EcGUSB)). Solved […]
(§17) refinement using COOT8 and REFMAC59 respectively. Ligand coordinates were built using jLigand10.
(§18) Diagrams were generated using PyMOL (Delano Scientific). cABPP Labelling experiments:
(§19) ABP labelling reactions were carried out in McIlvaine buffer (pH 5.0), 300 mM NaCl. Labeling reactions were initiated by the addition of ABP VB-A69 to a final concentration of 100 nM, before incubation for 30 min at 37°C with shaking. Following labeling, samples were denatured by boiling with Laemmli buffer for 5 min and resolved by SDS-PAGE. […]
(§20) For competitive ABPP (cABPP) experiments, platelet lysates were preincubated with inhibitor (or buffer only control) in McIlvaine buffer (pH 5.0), 300 mM NaCl for 1 h at 37°C with shaking. […] For quantitative measurements, fluorescently labeled the band intensities were calculated using Imagequant (Cytiva), and normalized to the corresponding band in the inhibitor free control lane. IC50 concentrations were determined by fitting data to the Hill equation: […]

[4] = target: T4, human heparanase (HPSE) (Homo sapiens, UniProt Q9Y251); test: Competitive activity-based protein profiling (cABPP) of HPSE in platelet lysate; type: biochemical; conditions: cABPP with ABP VB-A69 100 nM, pH 5.0, 1 h preincubation at 37°C
T4 construct: endogenous in cells; host or cells: human platelets (lysate)
T4 sequence (Q9Y251 36-543): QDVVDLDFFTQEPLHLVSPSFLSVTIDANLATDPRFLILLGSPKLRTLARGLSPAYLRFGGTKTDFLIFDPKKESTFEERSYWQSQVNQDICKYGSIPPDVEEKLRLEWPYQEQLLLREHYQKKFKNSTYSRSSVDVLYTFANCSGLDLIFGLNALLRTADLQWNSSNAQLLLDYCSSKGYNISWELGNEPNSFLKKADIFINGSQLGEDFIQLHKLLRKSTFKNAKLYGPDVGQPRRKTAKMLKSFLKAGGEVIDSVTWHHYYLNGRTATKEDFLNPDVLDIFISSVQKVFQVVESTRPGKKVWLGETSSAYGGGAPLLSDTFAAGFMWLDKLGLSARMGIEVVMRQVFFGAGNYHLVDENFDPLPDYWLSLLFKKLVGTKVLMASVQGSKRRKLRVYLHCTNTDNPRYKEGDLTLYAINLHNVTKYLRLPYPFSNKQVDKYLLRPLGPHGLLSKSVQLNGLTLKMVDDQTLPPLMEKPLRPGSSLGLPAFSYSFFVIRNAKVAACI
From the text: as §12, §13, §14, §15, §16, §17, §18, §19, §20

[5] = Stability of siastatin B by 1H NMR; type: physicochemical
Experimental: To determine how siastatin B inhibits β-glucuronidases, we first sought to determine whether inhibition was due to the presence of contaminants from either the commercial material or degradation products resulting from prolonged incubation in an aqueous solution or in the presence of a β-glucuronidase.
Supplemental Figures and Tables
Figure S1. Stability of siastatin B. A) 1H NMR experiment showing siastatin B (2 mg) in D2O phosphate buffer (50 mM, 300 mM NaCl, pH 5.0), taken for two different time points (t=0 min and after 18 h). B) Prolonged incubation of siastatin B with recombinant human heparanase. 1H NMR spectra were taken before and after prolonged incubation with 1.2 µM of recombinant human heparanase. The x-axis of […]
as §11

[6] = fluorogenic substrate MU-GlcUA, McIllvane buffer pH 5.0, competitive inhibition model, read-out: AcGH79 Ki
[7] = 500 µM MU-GlcUA, 0–400 µM siastatin B, pH 5.0

Row | Compound | Ki [1, 6] [µM] | Ki [2] [µM] | IC50 [3] [µM] | IC50 [4] [µM] | Ki ([1]; MU-GlcUA substrate, read-out: inhibition constant for AcGH79) [µM] | inhibition of AcGH79 by HPLC-purified material compared with commercial siastatin B [1, 7] | inhibition of EcGusB by HPLC-purified material compared with commercial siastatin B [2, 7] | stability in aqueous buffer (NMR) ([5]; D2O phosphate buffer 50 mM, 300 mM NaCl, pH 5.0, 18 h) | stability on prolonged incubation with recombinant human heparanase (1H NMR) ([5]; heparanase 1.2 μM)
1 | O=C(O)[C@H]1CNCC(O)(O)[C@H]1O [compound 8] | 5.8 ± 0.5 | 137 ± 3 | 4 ± 2 | 27 ± 3 |  |  |  |  | 
2 | O=C(O)[C@H]1CNCC(O)(O)[C@@H]1O [compound 9] |  | 28 ± 1 | 1.7 ± 0.2 | 200 ± 80 | 0.52 ± 0.03 |  |  |  | 
3 | O=C(O)[C@H]1CNC[C@@H](O)[C@H]1O [compound 10, galacturonic acid isofagomine] | 1.5 ± 0.4 | 23 ± 3 | 0.7 ± 0.04 | 8 ± 1 |  |  |  |  | 
4 | O=C(O)[C@H]1CNC[C@@H](O)[C@@H]1O [compound 11, glucuronic acid isofagomine] | 0.022 ± 0.003 | 1.5 ± 0.3 | 0.6 ± 0.06 | 80 ± 20 |  |  |  |  | 
5 | CC(=O)N[C@H]1NC[C@H](C(=O)O)[C@H](O)[C@@H]1O [siastatin B, Siastatin B] |  |  |  |  |  | inhibited less | inhibited less | no contaminating peaks appeared | very minor additional peaks in the 3.2–3.0 range, with no loss in the starting peaks observed
